The numbers were not newly measured in article PMC8696521 (RSC Advances, 2021), which cites them from elsewhere.

pIC50: −log10 of the molar value. Like-named read-outs stand apart in the source and are kept apart here.

One data set relates to ACE. The note with it: for Category of ACEI peptide by interaction with ACE: reduced IC50 values following incubation with ACE.
The conditions of data set [1]: peptide from P. fucata muscle.

By pIC50 is commonly meant the IC50 on a negative log10 scale, so that one unit is a factor of ten. For LIVT, the pIC50 in the data set with ACE (read-out: ACEI IC50) is 6.96.

In the case of GAGLPGKRER, in data set [1], the Antioxidant activity entry is recorded as “strong antioxidant activity”.

On to FHAPWK, for which the ACE inhibition pattern result in the data set with ACE is given as “competitive inhibitors”.

As to VVSLSIPR, the ACE inhibition pattern entry in the data set with ACE is reported as “competitive inhibitors”.

In the case of IKPVA, the “Category of ACEI peptide by interaction with ACE” value with ACE is “pro-drug substrates”.

With WVYY, the ACE inhibition pattern entry in the data set on ACE (hemp seed protein hydrolysate peptides) is “mixed-mode type of ACE inhibition”.

As for LSGYGP, in the data set with ACE, the ACE inhibition pattern entry is given as “noncompetitive”.

For the substance GVGSPY, the “ACEI IC50” value with ACE (from pearl oyster shell protein hydrolysate) was 5.82 µg/mL.

With IKPVQ, the “Category of ACEI peptide by interaction with ACE” value in the data set with ACE is recorded as “pro-drug substrates”.
